Results published in BigSolDB 2.1.

NNC(=O)c1ccncc1
solubility (mole fraction)
Details	283.15 K	288.15 K	293.15 K	298.15 K	303.15 K	308.15 K	313.15 K	318.15 K	323.15 K
in DMF	0.023	0.027	0.031	0.035	0.0412	0.0458	0.0511	0.0567	0.0649
in acetonitrile	0.000725	0.000912	0.00109	0.00141	0.00169	0.002	0.00241	0.00288	0.00331
in ethanol	0.00266	0.00318	0.00384	0.00465	0.00549	0.00646	0.00754	0.0087	0.00996
in ethyl acetate	0.000976	0.0012	0.00136	0.0016	0.00195	0.00234	0.00279	0.00331	0.00374
in isopropanol	0.0021	0.00253	0.00314	0.00373	0.00453	0.00558	0.00651	0.00804	0.00949
in methanol	0.00574	0.0067	0.00797	0.00961	0.0112	0.0131	0.0151	0.0179	0.0211
in n-propanol	0.00219	0.00264	0.00329	0.00419	0.00495	0.0059	0.00705	0.0084	0.00983
in water	0.0106	0.0134	0.0159	0.0198	0.024	0.0296	0.0354	0.0421	0.0517
